In PubChem BioAssay (NCI) one finds TGI data, which are given here for 13 compounds.

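Step 1: Grow cells in 96-well plates. Step 2: Expose to compound for 48 hours at 5 concentrations. Step 3: Interpolate endpoints linearly; if unreached, use highest concentration. TGI is the concentration that stops growth completely.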

Some test systems named below: COLO 205 colon; IGROV1 ovarian; MDA-MB-231 breast; MDA-N; NCI-H460 lung; OVCAR-5 ovarian; SF-539 CNS; SK-MEL-2 melanoma; SNB-19 CNS; SNB-75 CNS.
What all share (test): NCI anticancer screen, dose series, 48 h

Consider `CCN(CC)c1ccc2cc(C(=O)Nc3ccccn3)c(=N)oc2c1`, for which the TGI in the experiment on COLO 205 colon, in the experiment on IGROV1 ovarian, with MDA-MB-231 breast, in the experiment with MDA-N, in the experiment with NCI-H460 lung and in the experiment with OVCAR-5 ovarian was more than 100 µM throughout. In addition, the TGI in the experiment on SF-539 CNS was more than 100 µM; in the experiment with SK-MEL-2 melanoma it was 95.7 µM; in the experiment with SNB-19 CNS, 76.2 µM; in the experiment on SNB-75 CNS, more than 100 µM.
As for `O=c1cnn(CCOCP(=O)(O)O)c(=O)[nH]1`, the TGI in the experiment with COLO 205 colon, in the experiment on IGROV1 ovarian, in the experiment on MDA-MB-231 breast, in the experiment with MDA-N, with NCI-H460 lung and in the experiment with OVCAR-5 ovarian was more than 100 µM throughout. The TGI with SF-539 CNS, with SK-MEL-2 melanoma, in the experiment on SNB-19 CNS and with SNB-75 CNS was more than 100 µM each time.
Turning to `Fc1cccc(F)c1C1SCc2nc3ccc(Cl)cc3n21` (centres undefined), the TGI with COLO 205 colon, with IGROV1 ovarian, in the experiment with MDA-MB-231 breast, with MDA-N, with NCI-H460 lung and in the experiment on OVCAR-5 ovarian was more than 100 µM each time. Besides, the TGI with SF-539 CNS, in the experiment on SK-MEL-2 melanoma, in the experiment with SNB-19 CNS and in the experiment on SNB-75 CNS was more than 100 µM each time.
With `Cc1ccc2c(c1)C(=O)C(C1OC(=O)c3ccccc31)C2` (centres undefined), the TGI with COLO 205 colon, with IGROV1 ovarian, with MDA-MB-231 breast, in the experiment on MDA-N, in the experiment with NCI-H460 lung and in the experiment on OVCAR-5 ovarian was more than 100 µM throughout. Further, the TGI in the experiment on SF-539 CNS, in the experiment with SK-MEL-2 melanoma, in the experiment on SNB-19 CNS and in the experiment on SNB-75 CNS was more than 100 µM throughout.
As to `Cn1c(N/N=C/c2ccccc2)nc(-c2ccc([N+](=O)[O-])cc2)c(C#N)c1=O`, the TGI was more than 100 µM in the experiment on COLO 205 colon; more than 100 µM in the experiment with IGROV1 ovarian; 86.7 µM in the experiment on MDA-MB-231 breast; more than 100 µM in the experiment on MDA-N; more than 100 µM with NCI-H460 lung; more than 100 µM in the experiment on OVCAR-5 ovarian. For the same compound, the TGI in the experiment with SF-539 CNS, with SK-MEL-2 melanoma, with SNB-19 CNS and in the experiment on SNB-75 CNS was more than 100 µM in each case.
As to `COC(=O)c1ccc(Nc2nc3nc[nH]c3c(=O)[nH]2)cc1`, the TGI in the experiment on COLO 205 colon, in the experiment on IGROV1 ovarian, in the experiment on MDA-MB-231 breast, in the experiment with MDA-N, in the experiment with NCI-H460 lung and in the experiment with OVCAR-5 ovarian was more than 100 µM throughout. The TGI with SF-539 CNS, in the experiment with SK-MEL-2 melanoma, with SNB-19 CNS and with SNB-75 CNS was more than 100 µM in each case.
For `CN(C)c1cc[n+](-c2nc(/N=C(\[O-])C(F)(F)F)nc3c2ncn3C2CC(O)C(CO)O2)cc1` (centres undefined), the TGI in the experiment with COLO 205 colon, in the experiment with IGROV1 ovarian, in the experiment with MDA-MB-231 breast, in the experiment on MDA-N, with NCI-H460 lung and with OVCAR-5 ovarian was more than 100 µM throughout. Further, the TGI in the experiment on SF-539 CNS, in the experiment with SK-MEL-2 melanoma, in the experiment with SNB-19 CNS and in the experiment on SNB-75 CNS was more than 100 µM throughout.
Regarding `O=C1Nc2ccccc2/C1=c1\[nH]c(=O)/c(=C\c2ccc(OCc3ccccc3)cn2)[nH]c1=O`, the TGI was more than 100 µM in the experiment with COLO 205 colon; more than 100 µM in the experiment with IGROV1 ovarian; 91.7 µM in the experiment on MDA-MB-231 breast; more than 100 µM with MDA-N; more than 100 µM in the experiment on NCI-H460 lung; more than 100 µM in the experiment on OVCAR-5 ovarian. Further, the TGI is 55.5 µM in the experiment with SF-539 CNS, more than 100 µM with SK-MEL-2 melanoma, more than 100 µM in the experiment with SNB-19 CNS and 14 µM with SNB-75 CNS.
As for `CCc1ccccc1NNc1cc(=O)[nH]c(=O)[nH]1`, the TGI with COLO 205 colon was 34.5 µM; in the experiment with IGROV1 ovarian, 37.8 µM; in the experiment on MDA-MB-231 breast, 32.3 µM; in the experiment on MDA-N, 33.6 µM; in the experiment on NCI-H460 lung it was 52.6 µM; in the experiment with OVCAR-5 ovarian, 37.3 µM. For the same compound, the TGI with SF-539 CNS came out at 52.2 µM; in the experiment on SK-MEL-2 melanoma it was 56.2 µM; in the experiment with SNB-19 CNS it was 43.5 µM; in the experiment with SNB-75 CNS, 40.5 µM.
Regarding `O=C1C(CN2CCOCC2)CCCC1CN1CCOCC1` (centres undefined), the TGI with COLO 205 colon stood at 6.21 µM; in the experiment with IGROV1 ovarian, 17.3 µM; with MDA-MB-231 breast, 19.8 µM; in the experiment with MDA-N, 16.1 µM; in the experiment on NCI-H460 lung, 49 µM; in the experiment with OVCAR-5 ovarian, 36.6 µM. The TGI in the experiment on SF-539 CNS worked out at 7.45 µM; in the experiment on SK-MEL-2 melanoma, 16.3 µM; in the experiment with SNB-19 CNS, 45.7 µM; in the experiment with SNB-75 CNS it was 29.9 µM.
`S=C(Nc1ccc2cn[nH]c2c1)Nc1ccc2cn[nH]c2c1`: the TGI with COLO 205 colon, in the experiment on IGROV1 ovarian, with MDA-MB-231 breast, in the experiment with MDA-N, in the experiment on NCI-H460 lung and in the experiment with OVCAR-5 ovarian was more than 100 µM each time. Moreover, the TGI with SF-539 CNS, in the experiment on SK-MEL-2 melanoma, in the experiment on SNB-19 CNS and in the experiment on SNB-75 CNS was more than 100 µM throughout.
With `COc1cc(C2c3cc4c(cc3OC(NCCO)C2C)OCO4)cc(OC)c1OC` (centres undefined), the TGI with COLO 205 colon is 12.3 µM; in the experiment with IGROV1 ovarian, more than 100 µM; in the experiment with MDA-MB-231 breast it was more than 100 µM; in the experiment with MDA-N, 0.5 µM; in the experiment with NCI-H460 lung it was more than 100 µM; in the experiment on OVCAR-5 ovarian it was more than 100 µM. Moreover, the TGI is 0.635 µM in the experiment with SF-539 CNS, more than 100 µM in the experiment on SK-MEL-2 melanoma, more than 100 µM with SNB-19 CNS and more than 71.7 µM in the experiment with SNB-75 CNS.
As for `NC(Cc1ccc(S(=O)(=O)O)cc1)C(=O)NC(Cc1ccc(S(=O)(=O)O)cc1)C(=O)O` (centres undefined), the TGI with COLO 205 colon, in the experiment on IGROV1 ovarian, in the experiment on MDA-MB-231 breast, in the experiment on MDA-N, with NCI-H460 lung and in the experiment on OVCAR-5 ovarian was more than 100 µM throughout. Also, the TGI in the experiment on SF-539 CNS, in the experiment with SK-MEL-2 melanoma and with SNB-75 CNS was more than 100 µM throughout.
